Test: CD69 Whole Blood Assay (CD69 Hu Blood FACS)
Format: cell-based, human
Settings: Lymphocyte; human whole blood, anti-IgM activated B lymphocytes, FACS; IC70; Table 1; read-out: CD69 Hu Blood FACS IC70
Excerpt: A CD69 Whole Blood Assay can be conducted on Formula I compounds to determine the ability of compounds to inhibit the production of CD69 by B lymphocytes in human whole blood activated by crosslinking surface IgM with goat F(ab′)2 anti-human IgM (Example 907). CD69 is a type II C-type lectin involved in lymphocyte migration and cytokine secretion. CD69 expression represents one of the earliest available indicators of leukocyte activation and its rapid induction occurs through transcriptional activation (Vazquez et al (2009) Jour. of Immunology Published Oct. 19, 2009, doi:10.4049/jimmunol.0900839). Concentration-dependent inhibition of antigen receptor stimulation by selective Btk inhibitors induces cell surface expression of the lymphocyte activation marker CD69 (Honigberg et al (2010) Proc. Natl. Acad. Sci. 107(29):13075-13080). Thus, CD69 inhibition by selective Btk inhibitors may be correlated with therapeutic efficacy of certain B-cell disorders.

Row | Structure (SMILES) | IC70 [nM]
1 | CN1CCn2nc(Nc3cc(-c4ccnc(N5CCn6c(cc7c6[C@H]6CC[C@@H]7C6)C5=O)c4CO)cn(C)c3=O)cc2C1 (stereo in doubt) [Example 167, 2-(3-(hydroxymethyl)-4-(1-methyl-5-(5-methyl-4,5,6,7-tetrahydropyrazolo[1,5-a]pyrazin-2-ylamino)-6-oxo-1,6-dihydropyridin-3-yl)pyridin-2-yl)-3,4,6,7,8,9-hexahydro-6,9-methanopyrazino[1,2-a]indol-1(2H)-one] | 119
2 | CN1CCn2nc(Nc3cc(-c4ccnc(N5CCn6c(cc7c6[C@@H]6CC[C@H]7C6)C5=O)c4CO)cn(C)c3=O)cc2C1 (stereo in doubt) [Example 170, 2-(3-(hydroxymethyl)-4-(1-methyl-5-(5-methyl-4,5,6,7-tetrahydropyrazolo[1,5-a]pyrazin-2-ylamino)-6-oxo-1,6-dihydropyridin-3-yl)pyridin-2-yl)-3,4,6,7,8,9-hexahydro-6,9-methanopyrazino[1,2-a]indol-1(2H)-one] | 335
3 | Cn1cc(-c2cncc(N3CCn4c(cc5c4CCCC5)C3=O)c2CO)cc(Nc2ccc(N3CCN(C4COC4)CC3)cn2)c1=O [Example 101, 2-(4-(hydroxymethyl)-5-(1-methyl-5-(5-(4-(oxetan-3-yl)piperazin-1-yl)pyridin-2-ylamino)-6-oxo-1,6-dihydropyridin-3-yl)pyridin-3-yl)-3,4,6,7,8,9-hexahydropyrazino[1,2-a]indol-1(2H)-one] | 132
4 | CN1CCN(c2ccc(Nc3cc(-c4cncc(N5CCn6c(cc7c6CCCC7)C5=O)c4CO)cn(C)c3=O)nc2)CC1 [Example 102, 2-(4-(Hydroxymethyl)-5-(1-methyl-5-(5-(4-methylpiperazin-1-yl)pyridin-2-ylamino)-6-oxo-1,6-dihydropyridin-3-yl)pyridin-3-yl)-3,4,6,7,8,9-hexahydropyrazino[1,2-a]indol-1(2H)-one] | 132
5 | Cn1cc(-c2ccnc(N3CCn4c(cc5c4CCCC5)C3=O)c2CO)cc(Nc2ccc(N3CCN(C4COC4)CC3)cn2)c1=O [Example 103, 2-(3-(Hydroxymethyl)-4-(1-methyl-5-(5-(4-(oxetan-3-yl)piperazin-1-yl)pyridin-2-ylamino)-6-oxo-1,6-dihydropyridin-3-yl)pyridin-2-yl)-3,4,6,7,8,9-hexahydropyrazino[1,2-a]indol-1(2H)-one] | 77.6
6 | Cn1cc(-c2nccc(N3CCn4c(cc5c4CCCC5)C3=O)c2CO)cc(Nc2ccc(N3CCN(C4COC4)CC3)cn2)c1=O [Example 104, 2-(3-(Hydroxymethyl)-2-(1-methyl-5-(5-(4-(oxetan-3-yl)piperazin-1-yl)pyridin-2-ylamino)-6-oxo-1,6-dihydropyridin-3-yl)pyridin-4-yl)-3,4,6,7,8,9-hexahydropyrazino[1,2-a]indol-1(2H)-one] | 793
7 | Cn1cc(-c2cncc(N3CCc4c(sc5c4CCCC5)C3=O)c2CO)cc(Nc2ccc(N3CCN(C4COC4)CC3)cn2)c1=O [Example 105, 4-Hydroxymethyl-3-[1-methyl-5-({5-[4-(oxetan-3-yl)piperazin-1-yl]pyridine-2-yl}amino)-6-oxo-1,6-dihydropyridin-3-yl]-5-{6-oxo-8-thia-5-azatricyclo-[7.4.0.0^2,7]trideca-1(9),2(7)-dien-5-yl}pyridine] | 65.4
8 | Cn1cc(-c2cncc(N3CCc4c(sc5c4CC(C)(C)C5)C3=O)c2CO)cc(Nc2ccc(N3CCN(C4COC4)CC3)cn2)c1=O [Example 106] | 57.6
9 | Cn1cc(-c2cncc(N3CCn4c(cc5c4CC(C)(C)C5)C3=O)c2CO)cc(Nc2ccc(N3CCN(C4COC4)CC3)cn2)c1=O [Example 107, 10-[4-[1-Methyl-5-({5-[4-(oxetan-3-yl)piperazin-1-yl]pyridine-2-yl}amino)-6-oxo-1,6-dihydropyridin-3-yl]-4-(hydroxymethyl)pyridin-3-yl]-4,4-dimethyl-1,10-diazatricyclo[6.4.0.0^2,6]dodeca-2(6),7-dien-9-one] | 21.6
10 | Cn1cc(-c2ccnc(N3CCn4c(cc5c4CC(C)(C)C5)C3=O)c2CO)cc(Nc2ccc(N3CCN(C4COC4)CC3)cn2)c1=O [Example 108, 2-(3-(Hydroxymethyl)-4-(1-methyl-5-(5-(4-(oxetan-3-yl)piperazin-1-yl)pyridin-2-ylamino)-6-oxo-1,6-dihydropyridin-3-yl)pyridin-2-yl)-4,4-dimethyl-1,10-diazatricyclo[6.4.0.0^2,6]dodeca-2(6),7-dien-9-one] | 31.9
11 | Cn1cc(-c2ccnc(N3CCc4c(sc5c4CC(C)(C)C5)C3=O)c2CO)cc(Nc2ccc(N3CCN(C4COC4)CC3)cn2)c1=O [Example 109, 2-(3-(Hydroxymethyl)-4-(1-methyl-5-(5-(4-(oxetan-3-yl)piperazin-1-yl)pyridin-2-ylamino)-6-oxo-1,6-dihydropyridin-3-yl)pyridin-2-yl)-4,4-dimethyl-7-thia-10-azatricyclo[6.4.0.0^2,6]dodeca-1(8),2(6)-dien-9-one] | 50.1
12 | CN1CCN(c2cccc(Nc3cc(-c4ccnc(N5CCn6c(cc7c6CCCC7)C5=O)c4CO)cn(C)c3=O)n2)CC1 [Example 110, 2-(3-(Hydroxymethyl)-4-(1-methyl-5-(6-(4-methylpiperazin-1-yl)pyridine-2-ylamino)-6-oxo-1,6-dihydropyridin-3-yl)pyridin-2-yl)-3,4,6,7,8,9-hexahydropyrazino[1,2-a]indol-1(2H)-one] | 2700
13 | Cn1cc(-c2ccnc(N3CCn4c(cc5c4CCCC5)C3=O)c2CO)cc(Nc2ccc(C(=O)N3CCOCC3)cn2)c1=O [Example 111, 2-(3-(Hydroxymethyl)-4-(1-methyl-5-(5-(morpholine-4-carbonyl)pyridin-2-ylamino)-6-oxo-1,6-dihydropyridin-3-yl)pyridin-2-yl)-3,4,6,7,8,9-hexahydropyrazino[1,2-a]indol-1(2H)-one] | 131
14 | Cn1cc(-c2cncc(N3CCc4c(cc5n4CCCC5)C3=O)c2CO)cc(Nc2ccc(N3CCN(C4COC4)CC3)cn2)c1=O [Example 112, 2-(4-(Hydroxymethyl)-5-(1-methyl-5-(5-(4-(oxetan-3-yl)piperazin-1-yl)pyridin-2-ylamino)-6-oxo-1,6-dihydropyridin-3-yl)pyridin-3-yl)-3,4,6,7,8,9-hexahydropyrido[3,4-b]indolizin-1(2H)-one] | 492
15 | CN1CCn2nc(Nc3cc(-c4ccnc(N5CCn6c(cc7c6CCCC7)C5=O)c4CO)cn(C)c3=O)cc2C1 [Example 113, 2-(3-(Hydroxymethyl)-4-(1-methyl-5-(5-methyl-4,5,6,7-tetrahydropyrazolo[1,5-a]pyrazin-2-ylamino)-6-oxo-1,6-dihydropyridin-3-yl)pyridin-2-yl)-3,4,6,7,8,9-hexahydropyrazino[1,2-a]indol-1(2H)-one] | 62.5
16 | CN1CCN(C)[C@H](c2ccc(Nc3nc(-c4ccnc(N5CCn6c(cc7c6CCCC7)C5=O)c4CO)cn(C)c3=O)cc2)C1=O [Example 114, (R)-2-(4-(6-(4-(1,4-dimethyl-3-oxopiperazin-2-yl)phenylamino)-4-methyl-5-oxo-4,5-dihydropyrazin-2-yl)-3-(hydroxymethyl)pyridin-2-yl)-3,4,6,7,8,9-hexahydropyrazino[1,2-a]indol-1(2H)-one] | 80.2
17 | Cc1cc(Nc2cc(-c3ccnc(N4CCn5c(cc6c5CCCC6)C4=O)c3CO)cn(C)c2=O)n[nH]1 [Example 115, 2-(3-(Hydroxymethyl)-4-(1-methyl-5-(5-methyl-1H-pyrazol-3-ylamino)-6-oxo-1,6-dihydropyridin-3-yl)pyridin-2-yl)-3,4,6,7,8,9-hexahydropyrazino[1,2-a]indol-1(2H)-one] | 286
18 | Cn1cc(-c2cncc(-n3ncc4c5c(sc4c3=O)CCCC5)c2CO)cc(Nc2ccc(N3CCN(C4COC4)CC3)cn2)c1=O [Example 116, 4-Hydroxymethyl-3-[1-methyl-5-({5-[4-(oxetan-3-yl)piperazin-1-yl]pyridine-2-yl}amino)-6-oxo-1,6-dihydropyridin-3-yl]-5-{6-oxo-8-thia-4,5-diazatricyclo[7.4.0.0^2,7]trideca-1(9),2(7),3-trien-5-yl}pyridine] | 377
19 | Cn1cc(-c2ccnc(N3CCn4c(cc5c4CCCC5)C3=O)c2CO)cc(Nc2ccc(S(C)(=O)=O)cn2)c1=O [Example 117, 2-(3-(hydroxymethyl)-4-(1-methyl-5-(5-(methylsulfonyl)pyridin-2-ylamino)-6-oxo-1,6-dihydropyridin-3-yl)pyridin-2-yl)-3,4,6,7,8,9-hexahydro-pyrazino[1,2-a]indol-1(2H)-one] | 396
20 | Cn1cc(-c2ccnc(N3CCn4c(cc5c4CCCC5)C3=O)c2CO)cc(Nc2cc(C3CC3)[nH]n2)c1=O [Example 118, 2-(4-(5-(5-Cyclopropyl-1H-pyrazol-3-ylamino)-1-methyl-6-oxo-1,6-dihydropyridin-3-yl)-3-(hydroxymethyl)pyridin-2-yl)-3,4,6,7,8,9-hexahydropyrazino[1,2-a]indol-1(2H)-one] | 608
21 | C[C@H]1CN(C2COC2)CCN1c1ccc(Nc2cc(-c3ccnc(N4CCn5c(cc6c5CCCC6)C4=O)c3CO)cn(C)c2=O)nc1 [Example 119, (S)-2-(3-(Hydroxymethyl)-4-(1-methyl-5-(5-(2-methyl-4-(oxetan-3-yl)piperazin-1-yl)pyridin-2-ylamino)-6-oxo-1,6-dihydropyridin-3-yl)pyridin-2-yl)-3,4,6,7,8,9-hexahydropyrazino[1,2-a]indol-1(2H)-one] | 35.6

Same assay, conditions: Lymphocyte; human whole blood, anti-IgM activated B lymphocytes, FACS; IC70; Table 2 (unit inferred); read-out: CD69 Hu Blood FACS (IC70)

Row | Structure (SMILES) | IC70 [nM]
22 | COC[C@H](C)N1CCn2nc(Nc3cc(-c4ccnc(N5CCn6c(cc7c6CC(C)(C)C7)C5=O)c4CO)cn(C)c3=O)cc2C1 (single isomer, unassigned) [Example 303] | 17.9
